# Test results: patent US8575197B2, “Pyrolinone derivative and pharmaceutical composition comprising the same” (Shionogi & Co., Ltd., priority 2008, dated 2013)
# Target: human P2X3 receptor (Homo sapiens (Human), UniProt P56373)
# Assay: P2X3 receptor inhibition, ATP-evoked Fluo-3 calcium fluorescence (FDSS 3000)
# Type: cell-based
# Conditions: C6BU-1 cell transfected with human P2X3 receptor gene; ATP-evoked Fluo-3 fluorescence
# In short: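 C6BU-1 cells stably transfected with human P2X3, loaded with 4 μM Fluo-3-AM for 1 h at 37 °C in HEPES buffer pH 7.5 with probenecid. Compound added 5 min before 40 nM ATP solution; fluorescence followed 3 min. IC50 from ratio of peak post-ATP to baseline fluorescence.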
# Chain of human P2X3 receptor (P56373 whole entry): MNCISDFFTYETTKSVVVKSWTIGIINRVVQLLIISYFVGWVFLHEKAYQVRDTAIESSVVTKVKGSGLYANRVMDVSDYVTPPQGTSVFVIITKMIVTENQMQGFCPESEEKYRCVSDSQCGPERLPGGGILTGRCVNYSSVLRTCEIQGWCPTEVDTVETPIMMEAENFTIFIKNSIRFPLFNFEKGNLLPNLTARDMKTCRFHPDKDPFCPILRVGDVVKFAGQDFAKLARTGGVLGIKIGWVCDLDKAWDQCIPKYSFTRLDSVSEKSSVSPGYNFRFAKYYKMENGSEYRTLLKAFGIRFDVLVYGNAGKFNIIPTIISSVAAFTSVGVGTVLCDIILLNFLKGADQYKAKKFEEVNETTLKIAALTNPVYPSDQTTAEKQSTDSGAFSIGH
row,IC50,SMILES
1,151 nM,CSc1ccc(N2C(=O)C(O)=C(C(=O)C(C)(C)C)C2c2ccccc2OCCO)cc1 (centres unmarked) [Compound I-081]
2,464 nM,Cc1ncccc1C1c2c(C(C)(C)C)n[nH]c2C(=O)N1c1ccc(-c2cccs2)cc1 (centres unmarked) [II-121]
3,5 nM,CNC(=O)COc1ccccc1C1c2c(C(C)(C)C)n[nH]c2C(=O)N1c1ccc(-c2ccsc2)cc1 (centres unmarked) [II-167]
4,18 nM,COc1ccccc1C1c2c(C(C)(C)C)n[nH]c2C(=O)N1c1ccc(-c2cccs2)cn1 (centres unmarked) [II-256]
5,332 nM,COc1ccccc1C1c2c(C(C)(C)CO)n[nH]c2C(=O)N1c1nc2ccccc2s1 (centres unmarked) [II-139]
6,427 nM,COc1ncccc1C1C(C(=O)CC(C)(C)C)=C(O)C(=O)N1c1ccc(-c2ccsc2)cc1 (centres unmarked) [Compound I-462]
7,310 nM,CC(C)CC(=O)C1=C(O)C(=O)N(c2ccc(-c3ccon3)cc2)C1c1ccccc1OCCO (centres unmarked) [Compound I-323]
8,234 nM,COCCOc1ccccc1[C@H]1C(C(=O)C(C)C)=C(O)C(=O)N1c1ccc(-c2ccoc2)cc1 [Compound I-209]
9,16 nM,CC(C)c1n[nH]c2c1C(c1ccccc1OCCN(C)C)N(c1ccc(-c3ccsc3)cc1)C2=O (centres unmarked) [II-078]
10,222 nM,COc1ncccc1C1c2c(C(C)(C)C)n[nH]c2C(=O)N1c1ccc(C2=NCCS2)cc1 (centres unmarked) [II-192]
11,55 nM,COCCN(C)C(=O)c1ccccc1C1C(C(=O)CC(C)C)=C(O)C(=O)N1c1ccc(-c2ccc(C)o2)cc1 (centres unmarked) [Compound I-496]
12,11 nM,COCCOc1ccccc1C1c2c(C(C)(C)C)n[nH]c2C(=O)N1c1ccc(-c2ccsc2)cc1 (centres unmarked) [II-115]
13,508 nM,Cc1cc(-c2ccc(N3C(=O)C(O)=C(C(=O)CC(C)C)C3c3ccccc3OC(F)F)cc2)on1 (centres unmarked) [Compound I-341]
14,358 nM,COc1ccccc1C1c2c(C(C)(C)C)n[nH]c2C(=O)N1c1ccc(OC(F)(F)F)cc1 (centres unmarked) [II-097]
15,13 nM,COCc1ccccc1C1C(C(=O)C(C)C)=C(O)C(=O)N1c1ccc(-c2ccsc2)cc1 (centres unmarked) [Compound I-186]
16,9 nM,COC(=O)COc1ccccc1C1c2c(C(C)(C)C)n[nH]c2C(=O)N1c1ccc(-c2cccs2)cc1 (centres unmarked) [II-021]
17,412 nM,CO/N=C(/C)c1ccc(N2C(=O)c3[nH]nc(C(C)(C)C)c3C2c2ccccc2OC)cc1 (centres unmarked) [II-156]
18,429 nM,COc1ccc(-c2n[nH]c3c2C(c2ccccc2OCCO)N(c2nc4ccc(OC)cc4s2)C3=O)cc1 (centres unmarked) [II-118]
19,277 nM,COCc1ccccc1C1C(C(=O)C(C)(C)C)=C(O)C(=O)N1c1ccc(-c2noc(C)n2)cc1 (centres unmarked) [Compound I-051]
20,697 nM,COCc1ccccc1C1C(C(=O)C(C)C)=C(O)C(=O)N1c1ccc(-c2csc(C)n2)cc1 (centres unmarked) [Compound I-425]
21,65 nM,CC(C)c1n[nH]c2c1C(c1ccccc1CC(=O)O)N(c1ccc(-c3ccsc3)cc1)C2=O (centres unmarked) [II-094]
22,8 nM,COCCOc1ccccc1C1C(C(=O)C(C)C)=C(O)C(=O)N1c1ccc(-c2ccc(C)s2)cc1 (centres unmarked) [Compound I-263]
23,70 nM,CC(C)CC(=O)C1=C(O)C(=O)N(c2ccc(-c3ccsc3)cc2)C1c1ccccc1OC(F)(F)F (centres unmarked) [Compound I-330]
24,14 nM,Cc1ccc(-c2ccc(N3C(=O)C(O)=C(C(=O)CC(C)C)C3c3ccccc3OC(C)C)cc2)o1 (centres unmarked) [Compound I-398]
25,14 nM,COCc1ccccc1[C@@H]1C(C(=O)C(C)C)=C(O)C(=O)N1c1ccc(-c2csc(C)c2)cc1 [Compound I-455]

row,IC50,SMILES
1,221 nM,COc1ccccc1C1C(C(=O)C(C)(C)C)=C(O)C(=O)N1c1ccc(SC(F)(F)F)cc1 (centres unmarked) [Compound I-047]
2,15 nM,COCc1ccccc1[C@@H]1C(C(=O)C(C)C)=C(O)C(=O)N1c1ccc(-c2ccc(C)s2)cc1 [Compound I-393]
3,91 nM,COCCCOc1ccccc1C1C(C(=O)C(C)C)=C(O)C(=O)N1c1ccc(SC)cc1 (centres unmarked) [Compound I-484]
4,5 nM,COc1ccccc1C1c2c(C(C)(C)CO)n[nH]c2C(=O)N1c1ccc(-c2cccs2)cc1 (centres unmarked) [II-218]
5,4 nM,CC(C)c1n[nH]c2c1C(c1ccccc1OCC#N)N(c1ccc(-c3ccsc3)cc1)C2=O (centres unmarked) [II-127]
6,696 nM,Cc1nc(-c2ccc(N3C(=O)C(O)=C(C(=O)C(C)C)C3c3cccnc3N3CCOCC3)cc2)no1 (centres unmarked) [Compound I-524]
7,5 nM,CC(C)C(=O)C1=C(O)C(=O)N(c2ccc(-c3ccsc3)cc2)C1c1ccccc1OCC(=N)NO (centres unmarked) [Compound I-220]
8,30 nM,COCCOc1ncccc1C1C(C(=O)CC(C)C)=C(O)C(=O)N1c1ccc(-c2ccsc2)cc1 (centres unmarked) [Compound I-248]
9,374 nM,Cc1nc(-c2ccc(N3C(=O)C(O)=C(C(=O)C(C)C)C3c3cccnc3OCCO)cc2)no1 (centres unmarked) [Compound I-178]
10,155 nM,COCCOc1ccccc1C1C(C(=O)C(C)(C)C)=C(O)C(=O)N1c1ccc(-c2nc(C)no2)cc1 (centres unmarked) [Compound I-128]
11,29 nM,CC(C)C(=O)C1=C(O)C(=O)N(c2ccc(-c3ccon3)cc2)C1c1ccccc1OCC1CC1 (centres unmarked) [Compound I-588]
12,157 nM,COc1ccccc1C1C(C(=O)c2ccco2)=C(O)C(=O)N1c1ccc(-c2ccsc2)cc1 (centres unmarked) [Compound I-211]
13,17 nM,CC(C)(C)c1n[nH]c2c1C(c1ccccc1OCCO)N(c1ccc(-c3nccs3)cc1)C2=O (centres unmarked) [II-014]
14,4 nM,CC(C)(C)c1n[nH]c2c1C(c1ccccc1OCC(N)=O)N(c1ccc(-c3ccsc3)cc1)C2=O (centres unmarked) [II-169]
15,112 nM,COc1ccc(F)cc1C1c2c(C(C)(C)C)n[nH]c2C(=O)N1c1ccc(-c2ccon2)cc1 (centres unmarked) [II-062]
16,114 nM,COC(=O)COCc1ncccc1C1C(C(=O)C(C)(C)C)=C(O)C(=O)N1c1ccc(-c2ccsc2)cc1 (centres unmarked) [Compound I-181]
17,21 nM,COc1ncccc1C1c2c(C(C)(C)CO)n[nH]c2C(=O)N1c1ccc(-c2ccsc2)cc1 (centres unmarked) [II-109]
18,40 nM,Cc1cc(-c2ccc(N3C(=O)C(O)=C(C(=O)CC(C)C)C3c3ccccc3OCCO)cc2)cs1 (centres unmarked) [Compound I-374]
19,193 nM,CNC(=C(C)C)C1=C(O)C(=O)N(c2ccc(-c3ccsc3)cc2)C1c1cccnc1O (centres unmarked) [Compound I-253]
20,69 nM,COc1ncccc1C1c2c(C(C)(C)C)n[nH]c2C(=O)N1c1ccc(-c2ccoc2)cc1 (centres unmarked) [II-220]
21,21 nM,COCCOc1ncccc1C1C(C(=O)CC(C)C)=C(O)C(=O)N1c1ccc(-c2ccc(C)o2)cc1 (centres unmarked) [Compound I-360]
22,279 nM,CC(C)C(=O)C1=C(O)C(=O)N(c2ccc(-c3ccon3)cc2)C1c1ccccc1OCCO (centres unmarked) [Compound I-191]
23,81 nM,COc1cc(N2C(=O)C(O)=C(C(=O)C(C)C)C2c2ccccc2OC)ccc1-c1ccsc1 (centres unmarked) [Compound I-221]
24,538 nM,COc1cccc(OC)c1C1c2c(C(C)(C)C)n[nH]c2C(=O)N1c1ccc(-c2ccon2)cc1 (centres unmarked) [II-060]
25,37 nM,COc1ccccc1C1C(C(=O)C(C)C)=C(O)C(=O)N1c1ccc(-c2csc(C)c2)cc1 (centres unmarked) [Compound I-257]

row,IC50,SMILES
1,35 nM,COc1ccccc1C1C(C(=O)CC(C)C)=C(O)C(=O)N1c1ccc(-c2ccsc2)cc1 (centres unmarked) [Compound I-239]
2,149 nM,COc1ccccc1C1c2c(-c3ccco3)n[nH]c2C(=O)N1c1ccc(-c2ccsc2)cc1 (centres unmarked) [II-178]
3,7 nM,CC(C)C(=O)C1=C(O)C(=O)N(c2ccc(-c3ccsc3)cc2)C1c1ccccc1OCCCO (centres unmarked) [Compound I-429]
4,7 nM,CN(C)C(=O)COc1ccccc1C1c2c(C(C)(C)C)n[nH]c2C(=O)N1c1ccc(-c2ccsc2)cc1 (centres unmarked) [II-166]
5,679 nM,CCOC(=O)C1C(C(=O)C(C)C)=C(O)C(=O)N1c1ccc(-c2ccsc2)cc1 (centres unmarked) [Compound I-216]
6,12 nM,COC(=O)COc1ccccc1C1C(C(=O)C(C)(C)C)=C(O)C(=O)N1c1ccc(-c2cccs2)cc1 (centres unmarked) [Compound I-113]
7,15 nM,CC(C)(C)c1n[nH]c2c1C(c1ccccc1OCC#N)N(c1ccc(-c3ccon3)cc1)C2=O (centres unmarked) [II-108]
8,424 nM,CC(C)(C)C(=O)C1=C(O)C(=O)N(c2ccc(-c3ccsc3)cc2)C1c1cccc[n+]1[O-] (centres unmarked) [Compound I-104]
9,42 nM,COc1ccc(C(=O)C2=C(O)C(=O)N(c3ccc(-c4cc(C)on4)cc3)C2c2ccccc2OC)cc1 (centres unmarked) [Compound I-480]
10,595 nM,COc1ccccc1C1C(C(=O)C(F)(F)F)=C(O)C(=O)N1c1ccc(-c2ccon2)cc1 (centres unmarked) [Compound I-010]
11,124 nM,CC(C)C(=O)C1=C(O)C(=O)N(c2ccc(-c3ccoc3)cc2)C1c1cccnc1OCCO (centres unmarked) [Compound I-233]
12,477 nM,COCc1ccccc1C1C(C(=O)C(C)C)=C(O)C(=O)N1c1ccc(SC)cc1 (centres unmarked) [Compound I-477]
13,78 nM,CC(C)CC(=O)C1=C(O)C(=O)N(c2ccc(-c3ccoc3)cc2)C1c1ccccc1OC(F)(F)F (centres unmarked) [Compound I-343]
14,102 nM,Cc1cc(-c2ccc(N3C(=O)C(O)=C(C(=O)C(C)C)C3c3ccccc3OC(F)(F)F)cc2)cs1 (centres unmarked) [Compound I-322]
15,700 nM,COc1ccccc1C1C(C(=O)C2(CO)CCCCC2)=C(O)C(=O)N1c1ccc(-c2ccon2)cc1 (centres unmarked) [Compound I-031]
16,593 nM,COCc1ccccc1C1C(C(=O)C(C)C)=C(O)C(=O)N1c1ccc(-c2cscn2)cc1 (centres unmarked) [Compound I-418]
17,114 nM,CC(C)C(=O)C1=C(O)C(=O)N(c2ccc(-c3ccsc3)cc2)C1c1ccccc1C(F)(F)F (centres unmarked) [Compound I-300]
18,135 nM,COc1ccccc1C1c2c(C(C)(C)C)nn(C(=O)OC(C)(C)C)c2C(=O)N1c1ccc(Br)cc1 (centres unmarked) [II-211]
19,310 nM,COc1ccccc1C1C(C(=O)CC(C)C)=C(O)C(=O)N1c1ccc(C2=NCCS2)cc1 (centres unmarked) [Compound I-412]
20,6 nM,COCCOc1ncccc1C1c2c(C(C)(C)C)n[nH]c2C(=O)N1c1ccc(-c2cccs2)cc1 (centres unmarked) [II-035]
21,11 nM,CNC(=O)COc1ccccc1C1c2c(C(C)C)n[nH]c2C(=O)N1c1ccc(-c2ccsc2)cc1 (centres unmarked) [II-049]
22,63 nM,COCc1ncccc1C1C(C(=O)C(C)C)=C(O)C(=O)N1c1ccc(-c2ccsc2)cc1 (centres unmarked) [Compound I-194]
23,311 nM,COc1ccccc1C1c2c(C(F)(F)F)n[nH]c2C(=O)N1c1ccc(-c2ccon2)cc1 (centres unmarked) [II-148]
24,112 nM,COc1ccccc1C1c2c(C(C)(C)C)n[nH]c2C(=O)N1c1ccc(-c2ccccc2)cc1 (centres unmarked) [II-208]
